Source: patent publication US6617136B2, “Biological sample processing methods and compositions that include surfactants” (3M Innovative Properties Company, priority 2001, dated 2003)

Legend:
AMPLITAQ DNA polymerase = biological target: T1, AMPLITAQ DNA polymerase (Thermus aquaticus, UniProt P19821); test: PCR amplification of PERV protease fragment in the presence of dye/surfactant mixture; format: biochemical; conditions: dye at 0.1 or 0.2 mg/mL, agarose gel
T1 construct: purchased Applied Biosystems, Foster City, Calif
T1 sequence (P19821 whole entry, the tested form may be a part): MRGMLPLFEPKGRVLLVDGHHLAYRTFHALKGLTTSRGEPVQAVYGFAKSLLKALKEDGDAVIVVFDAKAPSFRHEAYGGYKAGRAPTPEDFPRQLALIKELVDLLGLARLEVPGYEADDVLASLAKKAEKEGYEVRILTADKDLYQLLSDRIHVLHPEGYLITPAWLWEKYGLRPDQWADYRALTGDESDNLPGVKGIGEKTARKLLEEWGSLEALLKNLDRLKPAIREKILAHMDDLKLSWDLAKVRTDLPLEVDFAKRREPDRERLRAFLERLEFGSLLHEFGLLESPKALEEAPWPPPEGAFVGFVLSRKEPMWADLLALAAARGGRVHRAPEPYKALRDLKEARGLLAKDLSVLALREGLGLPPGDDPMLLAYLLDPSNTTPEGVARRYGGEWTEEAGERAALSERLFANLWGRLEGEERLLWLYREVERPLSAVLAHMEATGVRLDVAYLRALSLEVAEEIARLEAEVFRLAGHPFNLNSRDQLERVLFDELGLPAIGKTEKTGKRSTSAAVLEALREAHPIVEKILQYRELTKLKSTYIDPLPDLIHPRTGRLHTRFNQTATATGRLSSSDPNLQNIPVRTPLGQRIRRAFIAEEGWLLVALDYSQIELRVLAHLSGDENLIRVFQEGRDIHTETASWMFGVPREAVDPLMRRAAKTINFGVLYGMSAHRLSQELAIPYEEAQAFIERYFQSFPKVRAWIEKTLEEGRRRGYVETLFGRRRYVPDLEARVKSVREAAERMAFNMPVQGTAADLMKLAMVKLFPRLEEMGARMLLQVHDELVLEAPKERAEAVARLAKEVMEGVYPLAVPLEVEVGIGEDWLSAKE
Description: Typically, a fresh stock solution of 5 milligrams (mg) of a water-insoluble near-infrared dye (NIR dye) was dissolved in 50 microliters (μL) of dimethylsulfoxide (DMSO) and brought up in water to a final volume of 1 milliliter (mL). This was then diluted out to various concentrations of dye. The diluted dye (typically 0.2 mg/mL) was then added to a surfactant solution (typically 4 wt-%) to form a complex. The complex was added to a PCR reaction.
PCR reactions were set up for a conserved sequence (327 bp) in the protease region of the genome of porcine endogenous retrovirus using a plasmid containing the PERV protease fragment, a forward primer and a reverse primer designed using a primer express program from Applied Biosystems, and AMPLITAQ DNA polymerase cocktail (commercially available from Applied Biosystems, Foster City, Calif.) and cycled in a thermocycler (9700, Applied Biosystems). The PCR reactions were typically carried out in 25-μL volumes. The NIR dye/surfactant mixture was added to the PCR cocktail to give the desired concentration of dye and surfactant in a total volume of 25 μL. […]
In order to find out the optimum concentration of surfactant for PCR with NIR dye (785 WS and SDA 8080), the surfactant concentration in PCR reaction was varied from 0.1 wt-% to 4 wt-%. The PCR product formed was quantitated using DNA 7500 Labchip kit in Agilent 2100 Bioanalyzer (Agilent Inc, Paloalto, Calif.). […]
A variety of dyes (NIR dyes such as IR782, IR768, SDA 2141, SDA8327, IR 830 WS, fluorescent dyes like oligreen and visible dyes like dichlorophenol, indophenol, saffranin, crystal violet, and commercially available food coloring) at typical concentrations of 0.1 or 0.2 mg/mL were allowed to interact with 4 wt-% PLURONIC F127 and each mixture was added to the PCR cocktail. The reaction was set up to amplify PERV protease fragment as described in Example 2 and the products of the reaction were analyzed by agarose gel electrophoresis.

[1] = Laser stability / photobleaching of dye on laser exposure; format: physicochemical
Description: An 813-nm diode laser source at 1.2W (1.9A) (Opto Power Corp., Tucson, Ariz.) was used to heat a 10-μL volume of near-IR dye at a concentration (0.1 mg/mL for 785 WS, 0.2 mg/mL for SDA 8080) to yield a 35° C. rise in temperature. The laser was manually turned on long enough for the temperature in a 10-μL well to increase by 35° C. (1-3 seconds) and was manually turned off when that level was attained. The temperature data was obtained using a thermocouple in the well, and the transmittance data was obtained via a power meter whose signals were digitized and graphically interpreted.
In another experiment, the 10 μL well was used to see if the dye/surfactant mixture could withstand laser cycling over a period of 30 cycles. The laser power was systematically varied from 60° C. to 94° C., 30 times.
Unlike in Example 8, some dyes and dye/surfactant complexes undergo photodegradation when exposed to laser beam. […] Specifically, in the case of 785 WS/BRIJ-97, the addition of ascorbic acid (typically 5 mg/mL) helped reduce the amount of photobleaching from 100% to 20% after 30 cycles. In some circumstances, rapid/controlled photodegradation may be desired. […] This would allow DNA tags (fluorescent or vis/IR) to be monitored at the end of the PCR reaction.

Molecule | effect of dye alone on PCR (AMPLITAQ DNA polymerase) | amount of photobleaching ([1]; 785 WS/BRIJ-97 with ascorbic acid (typically 5 mg/mL), after 30 cycles) [%] | effect of antioxidant on dye absorbance ([1]; added to SDA 8080) | effect of antioxidant on photobleaching ([1]; added to virtually any of the surfactants tested with 785 WS)
Cc1cc2nc3cc(C)c(N)cc3[n+](-c3ccccc3)c2cc1N.[Cl-] [saffranin] | inhibited PCR | – | – | –
dichlorophenol | inhibited PCR | – | – | –
CN(C)c1ccc(C(=C2C=CC(=[N+](C)C)C=C2)c2ccc(N(C)C)cc2)cc1 [crystal violet] | inhibited PCR | – | – | –
O=C1O[C@H]([C@@H](O)CO)C(O)=C1O [ascorbic acid] | – | 20 | destroyed the absorbance in the visible and near-IR region of the dye | reduced photobleaching significantly
